Results on 1 molecule are retold here after patent US11028315B2, “Zwitterionic surfactants suitable for enhanced oil recovery” (RHODIA OPERATIONS, priority 2016, dated 2021).

Values joined by “and” are separate entries in the source; they are usually repeats but may differ in a detail not shown here. Identical values can stand only once.

What all share (type): physicochemical
Data set [1] in a line: Phase behavior: optimal wt. % of co-surfactant leading to Will phase behavior in presence of crude oil. On the procedure:
(§1) 2.1 In the following examples, the performances of surfactants formulations containing the betaine of example 1.3.1 in a brine solution at 50 g/L NaCl were compared.
(§2) The total surfactant concentration was set at 8 g/L and the formulation variable was the wt. % of the more hydrophilic zwitterionic surfactant (considered as co-surfactant) in the surfactant blend.
(§3) The wt. % of the more hydrophilic zwitterionic leading to a Will phase behavior (optimal wt %. of co-surfactant), was determined in presence of crude oil at 40° C. and reported in Table 1. The solubility of surfactant blends was also analyzed.

Data set [2] in a line: Solubility of surfactant blends (absorbance). Here is the method:
as §1, §2, §3
2.2. In terms of interfacial tension, all the blends studied led to ultra-low values (<10^−2 mN/m). On the other hand, only the hydrophilic amido betaine derived from a branched C12 acid (ADBB12) allows obtaining a homogeneous but opalescent water solution (absorbance of 0.46) at the optimal formulation (71 wt. %).

A short description of data set [3]: Interfacial tension calculated from solubility ratios at the equilibrium phase behavior. Here is the method:
as §3

Data set [4] in a line: Interfacial tension with crude oil by spinning drop methods. The following applies: mixture of ADBB12 and the betaine from C23 ketones derived diamine at the optimal wt. %. On the procedure:
All the linear alkyl betaines, solutions separate in two phases or forms really turbid solutions (0.86 absorbance). Interfacial tension with crude oil of the mixture ADBB12 and the betaine from C23 ketones derived diamine at the optimal wt. % was evaluated by spinning drop methods. The ultra-low interfacial tension was confirmed (=10^−3 mN/m).

On to `CCCCCCC(CCCC)C(=O)NCCC[N+](C)(C)CC(=O)[O-]` (stereo not shown) [ADBB12], for which the Optimal % co-surfactant is reported as 71% in data set [1] (blend with betaine of example 1.3.1, brine 50 g/L NaCl, total surfactant 8 g/L, crude oil, 40° C., wt. % of co-surfactant in the blend) and 64% in data set [1] (blend with sulfobetaine from C23 ketone derived diamine, same conditions as the betaines (50 g/L NaCl, 8 g/L, crude oil, 40° C.)). Also, the Absorbance in data set [2] (blend with betaine of example 1.3.1 at optimal wt. % co-surfactant, brine 50 g/L NaCl, total surfactant 8 g/L) was 0.46 and 0.45; in data set [2] (blend with sulfobetaine from C23 ketone derived diamine at optimal wt. % co-surfactant), 0.84. Besides, the “γw (interfacial tension)” value in data set [3] (blend with betaine of example 1.3.1 at optimal wt. %, brine 50 g/L NaCl, 8 g/L, crude oil, 40° C.) is reported as 3,4 mN/m · 10^3; in data set [3] (blend with sulfobetaine from C23 ketone derived diamine at optimal wt. %), 3.3 mN/m · 10^3. In data set [4], the “Interfacial tension with crude oil” value is 10^−3 mN/m.
